Measured values reported in the NIST ThermoML archive (doi:10.1021/acs.jced.5b00367).

Assay: wn = mass fraction of the nth substance listed
Conditions: 101 kPa, Liquid, Alternating current cell with electrodes, w1 = 0.01

CCCCCCCCCCCC[N+](CC)(CC)CCCCCCCCCCCC.[Br-] [didodecyldiethylammonium bromide] + O
Conditions | electrical conductivity [S/m]
291.85 K | 0.00363
291.95 K | 0.00362
292.05 K | 0.00364
292.15 K | 0.00366
292.25 K | 0.00366
292.35 K | 0.00367
292.45 K | 0.00362
292.55 K | 0.00374
292.65 K | 0.00369
292.75 K | 0.00367
292.85 K | 0.00372
292.95 K | 0.00369
293.05 K | 0.00378
293.15 K | 0.00377
293.25 K | 0.00376
293.35 K | 0.00376
293.45 K | 0.0037
293.55 K | 0.00375
293.65 K | 0.00376
293.75 K | 0.00372
293.85 K | 0.00383
293.95 K | 0.00378
294.05 K | 0.0038
294.15 K | 0.00381
294.25 K | 0.0038
294.35 K | 0.00381
294.45 K | 0.00383
294.55 K | 0.00382
294.65 K | 0.00384
294.75 K | 0.00385
294.85 K | 0.00386
294.95 K | 0.00387
295.05 K | 0.00389
295.15 K | 0.00389
295.25 K | 0.00386
295.35 K | 0.00396
295.45 K | 0.00395
295.55 K | 0.00387
295.65 K | 0.00396
296.45 K | 0.00389
296.55 K | 0.00397
296.75 K | 0.00394
297.45 K | 0.00396
297.85 K | 0.00401
298.15 K | 0.00402
298.55 K | 0.00399
298.75 K | 0.00405
298.95 K | 0.00402
299.15 K | 0.00407
299.55 K | 0.00409
299.75 K | 0.00406
300.05 K | 0.00407
300.45 K | 0.00419
300.75 K | 0.00428
300.95 K | 0.00431
301.55 K | 0.00453
301.85 K | 0.00472
302.15 K | 0.0048
302.35 K | 0.005
302.75 K | 0.00518
303.05 K | 0.00543
303.45 K | 0.00568
303.75 K | 0.00609
304.55 K | 0.00686
304.85 K | 0.00713
305.15 K | 0.00765
305.55 K | 0.00812
305.85 K | 0.00833
306.05 K | 0.00891
306.35 K | 0.00946
307.35 K | 0.0136
307.55 K | 0.0157
307.95 K | 0.016
308.25 K | 0.0159
308.35 K | 0.016
308.75 K | 0.0162
308.95 K | 0.0165
309.25 K | 0.0167
309.75 K | 0.0169
310.05 K | 0.0171
310.15 K | 0.0172
310.45 K | 0.0175
310.65 K | 0.0177
310.85 K | 0.0179
311.05 K | 0.018
311.25 K | 0.0181
311.45 K | 0.0183
311.65 K | 0.0184
311.75 K | 0.0185
311.85 K | 0.0187
311.95 K | 0.0188
312.15 K | 0.0189
312.35 K | 0.0192
312.55 K | 0.0194
312.65 K | 0.0194
312.85 K | 0.0196
312.95 K | 0.0196
313.35 K | 0.0201
313.65 K | 0.0204
313.85 K | 0.0205
313.95 K | 0.0207
314.05 K | 0.0208
314.15 K | 0.0209
314.35 K | 0.021
314.45 K | 0.0212
314.65 K | 0.0213
314.75 K | 0.0214
314.85 K | 0.0216
314.95 K | 0.0217
315.05 K | 0.0218
315.15 K | 0.0219
315.25 K | 0.022
315.35 K | 0.0222
